Reference: PMC8080595, “Discovery of a novel RORγ antagonist with skin-restricted exposure for topical treatment of mild to moderate psoriasis” (Scientific Reports, 2021)

Experiments:
[1] = test system: GABAA; assay: SAFETYscan47 Ion Channel; type: cell-based; conditions: 3 µM
Experimental: (§1) To further profile any off-target activity, we counter-screened SHR168442 in SAFETYscan47 panel, compiled by DiscoverX based on the recommendation by major pharmaceutical companies. SHR168442 was screened at 3 µM in duplicates.

[2] = biological target: T1, hERG (Homo sapiens, UniProt Q12809); assay: SAFETYscan47 Ion Channel; type: cell-based; conditions: Blocker; 3 µM
T1 construct: purchased DiscoverX (Eurofins) SAFETYscan47
T1 sequence (Q12809 whole entry): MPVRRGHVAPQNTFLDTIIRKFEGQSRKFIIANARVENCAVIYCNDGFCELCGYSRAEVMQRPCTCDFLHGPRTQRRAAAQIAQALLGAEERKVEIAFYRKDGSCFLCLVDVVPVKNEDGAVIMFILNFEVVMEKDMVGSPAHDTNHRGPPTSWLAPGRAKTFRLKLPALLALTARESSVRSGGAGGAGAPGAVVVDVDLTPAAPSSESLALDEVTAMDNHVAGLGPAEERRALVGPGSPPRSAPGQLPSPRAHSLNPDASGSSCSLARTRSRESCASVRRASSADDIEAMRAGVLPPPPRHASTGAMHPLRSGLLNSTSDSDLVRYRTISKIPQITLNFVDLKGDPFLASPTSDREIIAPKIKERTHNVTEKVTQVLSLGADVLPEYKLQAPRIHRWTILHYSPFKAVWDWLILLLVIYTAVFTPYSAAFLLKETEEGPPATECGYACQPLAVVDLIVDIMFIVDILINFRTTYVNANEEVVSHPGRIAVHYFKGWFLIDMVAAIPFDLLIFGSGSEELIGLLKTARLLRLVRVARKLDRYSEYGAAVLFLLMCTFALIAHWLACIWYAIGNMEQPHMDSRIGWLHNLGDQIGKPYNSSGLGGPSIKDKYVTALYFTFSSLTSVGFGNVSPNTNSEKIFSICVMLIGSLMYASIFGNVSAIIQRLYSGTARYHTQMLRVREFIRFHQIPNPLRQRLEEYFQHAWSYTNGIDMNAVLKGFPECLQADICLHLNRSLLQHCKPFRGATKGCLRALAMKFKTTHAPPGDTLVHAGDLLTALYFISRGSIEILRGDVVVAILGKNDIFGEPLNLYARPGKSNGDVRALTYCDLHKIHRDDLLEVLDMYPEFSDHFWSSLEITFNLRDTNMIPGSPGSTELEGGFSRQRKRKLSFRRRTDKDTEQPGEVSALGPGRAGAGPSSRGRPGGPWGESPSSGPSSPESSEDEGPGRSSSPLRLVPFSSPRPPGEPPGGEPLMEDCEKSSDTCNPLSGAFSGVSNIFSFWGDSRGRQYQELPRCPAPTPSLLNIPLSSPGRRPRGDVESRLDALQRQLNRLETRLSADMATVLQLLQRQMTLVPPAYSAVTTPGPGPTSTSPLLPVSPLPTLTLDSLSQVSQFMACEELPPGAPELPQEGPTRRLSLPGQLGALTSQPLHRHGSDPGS
Experimental: as §1

**Q.** Which “% Response Average” value ([1]; Blocker) does the source give for `CCS(=O)(=O)c1ccc([C@H](CCO)c2nc3c(Cl)c(N4CCC(F)(F)CC4)c(Cl)cc3[nH]2)cc1` [SHR168442, (S)-3-(4,6-dichloro-5-(4,4-difluoropiperidin-1-yl)-1H-benzo[d]imidazol-2-yl)-3-(4-(ethylsulfonyl)phenyl)propan-1-ol] here?
**A.** The value was 7.4%.

**Q.** And the “% Response Replicate 1” value ([1]; Blocker)?
**A.** The value was 4.6%.

**Q.** And the “% Response Replicate 2” value ([1]; Blocker)?
**A.** Its value is 10.1%.

**Q.** And the “% Response Average” value ([1]; Opener)?
**A.** The value was 2.5%.

**Q.** And the “% Response Replicate 1” value ([1]; Opener)?
**A.** Its value is 3.2%.

**Q.** And the “% Response Replicate 2” value ([1]; Opener)?
**A.** Its value is 1.9%.

**Q.** And the “% Response Average” value [2]?
**A.** Its value is 4.9%.

**Q.** What about the “% Response Replicate 1” value [2] of the same compound?
**A.** Its value is 6.5%.

**Q.** What about the “% Response Replicate 2” value [2] of the same compound?
**A.** Its value is 3.2%.
